The values that follow are results of earlier work, collected in patent US10858388B2, “Selective progesterone receptor modulator (SPRM) regimen” (BAYER PHARMA AKTIENGESELLSCHAFT, priority 2015, dated 2020).

Each structure is given as a SMILES string.

The subject of one data set is endometrium. The note with it: relatively low concentration, WO2009/134178; cited from earlier work.
Data set [1] concerns women with excessive uterine bleeding due to the presence of fibroids. The note with it: 5 mg Ulipristal Acetate, cited from earlier work.
The test system of another data set is fibroids. Conditions: in vivo; cited from earlier work.

On to `COCC(=O)[C@@]1(OC(C)=O)CC[C@H]2[C@@H]3CCC4=CC(=O)CCC4=C3[C@@H](c3ccc(N(C)C)cc3)C[C@@]21C` [CDB-4124], for which, in the data set with endometrium, the Endometrium during treatment result is “substantial thickening of the endometrium”. Regarding `CC(=O)O[C@]1(C(C)=O)CC[C@H]2[C@@H]3CCC4=CC(=O)CCC4=C3[C@@H](c3ccc(N(C)C)cc3)C[C@@]21C` [Ulipristal Acetate], in data set [1] (13 weeks), the “≤2 ml, indicating Amenorrhea - (%), EoT 13 Weeks” value was 75% and the “≤2 ml, indicating Amenorrhea - no./total no., EoT 13 Weeks” value was 70/93. Besides, in data set [1] (data from Jacques Donnez et al), the “Amenorrhea (<2 ml) at EoT (%) 12 Weeks” value is on record as about 75%. For `CC#C[C@]1(O)CC[C@H]2[C@@H]3CCC4=CC(=O)CCC4=C3[C@@H](c3ccc(N(C)C)cc3)C[C@@]21C` [mifepristone], in the data set on fibroids, the “Size of fibroids and related symptoms” value was “decrease the size of fibroids and related symptoms”.
